Results taken from patent US12435060B2, “Acylamino bridged heterocyclic compound, and composition and application thereof” (BEIJING SCITECH-MQ PHARMACEUTICALS LIMITED, priority 2019, dated 2025).

test system: HT29 cells; assay: Inhibition of cell necrosis (CCK8 method), induced programmed necrosis of HT29 cells; type: cell-based; conditions: Homo sapiens, HT-29; rescue from necrosis induced by TNF-α 20 ng/mL, AT-406 1 μM, Z-VAD-FMK 20 μM; 16-20 hours; CCK-8, OD 450 nm
How it was run: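 HT29 cells in McCOY's 5A with 10% FBS were pre-treated for 30 min with compound (9 fourfold steps, 25000 to 0.38 nM final, 0.25% DMSO). Necrosis was then induced with TNF-α 20 ng/mL, AT-406 1 μM and Z-VAD-FMK 20 μM for 16-20 h. Viability was read by CCK-8 OD450, normalized between uninduced and induced wells, and IC50 was curve-fitted.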

Row | SMILES | IC50
1 | Cc1ccc(OCCCC(C)(C)O)cc1-c1ccnc(NC(=O)c2nnc(Cc3cc(F)c(F)cc3F)[nH]2)c1 [Example 218, 5-(2,4,5-trifluorobenzyl)-N-(4-(5-((4-hydroxy-4-methylpentyl)oxy)-2-methylphenyl)pyridin-2-yl)-4H-1,2,4-triazole-3-carboxamide] | ≤ 100 nM
2 | Cc1ccc(OCCCC(C)(C)O)cc1-c1ccnc(NC(=O)c2nnc(Cc3ccccn3)[nH]2)c1 [Example 219, N-(4-(5-((4-hydroxy-4-methylpentyl)oxy)-2-methylphenyl)pyridin-2-yl)-5-(pyridin-2-ylmethyl)-4H-1,2,4-triazole-3-carboxamide] | ≤ 100 nM
3 | Cc1ccc(OCCCC(C)(C)O)cc1-c1ccnc(NC(=O)c2nnc(Cc3cccnc3)[nH]2)c1 [Example 220, N-(4-(5-((4-hydroxy-4-methylpentyl)oxy)-2-methylphenyl)pyridin-2-yl)-5-(pyridin-3-ylmethyl)-4H-1,2,4-triazole-3-carboxamide] | ≤ 100 nM
4 | Cc1ccc(OCCCC(C)(C)O)cc1-c1ccnc(NC(=O)c2nnc(Cc3ccncc3)[nH]2)c1 [Example 221, N-(4-(5-((4-hydroxy-4-methylpentyl)oxy)-2-methylphenyl)pyridin-2-yl)-5-(pyridin-4-ylmethyl)-4H-1,2,4-triazole-3-carboxamide] | 100 to 1000 nM
5 | Cc1ccc(OCCCC(C)(C)O)cc1-c1ccnc(NC(=O)c2nnc(CC3CCCCCC3)[nH]2)c1 [Example 222, 5-(cycloheptylmethyl)-N-(4-(5-((4-hydroxy-4-methylpentyl)oxy)-2-methylphenyl)pyridin-2-yl)-4H-1,2,4-triazole-3-carboxamide] | ≤ 100 nM
6 | Cc1ccc(OCCCCC(C)(C)O)cc1-c1ccnc(NC(=O)c2nnc(CC3CCCC3)[nH]2)c1 [Example 223, 5-(cyclopentylmethyl)-N-(4-(5-((5-hydroxyl-5-methylhexyl)oxy)-2-methylphenyl)pyridin-2-yl)-4H-1,2,4-triazole-3-carboxamide] | ≤ 100 nM
7 | Cc1ccc(OCCCCCO)cc1-c1ccnc(NC(=O)c2nnc(CC3CCCC3)[nH]2)c1 [Example 224, 5-(cyclopentylmethyl)-N-(4-(5-((5-hydroxypentyl)oxy)-2-methylphenyl)pyridin-2-yl)-4H-1,2,4-triazole-3-carboxamide] | ≤ 100 nM
8 | Cc1ccc(OCCC2CCCCCC2)cc1-c1ccnc(NC(=O)c2nnc(Cc3ccccc3)[nH]2)c1 [Example 225, 5-benzyl-N-(4-(5-(2-cycloheptylethoxy)-2-methylphenyl)pyridin-2-yl)-4H-1,2,4-triazole-3-carboxamide] | ≤ 100 nM
9 | Cc1ccc(OCCC2CCOCC2)cc1-c1ccnc(NC(=O)c2nnc(Cc3ccccc3F)[nH]2)c1 [Example 226, 5-(2-fluorobenzyl)-N-(4-(2-methyl-5-(2-(tetrahydro-2H-pyran-4-yl)ethoxy)phenyl)pyridin-2-yl)-4H-1,2,4-triazole-3-carboxamide] | ≤ 100 nM
10 | Cc1ccc(OCCC2CCCCO2)cc1-c1ccnc(NC(=O)c2nnc(Cc3ccccc3)[nH]2)c1 (centres unmarked) [Example 227, 5-benzyl-N-(4-(2-methyl-5-(2-(tetrahydro-2H-pyran-2-yl)ethoxy)phenyl)pyridin-2-yl)-4H-1,2,4-triazole-3-carboxamide] | ≤ 100 nM
11 | Cc1ccc(OCCN2CCCCC2)cc1-c1ccnc(NC(=O)c2nnc(Cc3ccccc3)[nH]2)c1 [Example 228, 5-benzyl-N-(4-(2-methyl-5-(2-(piperidin-1-yl)ethoxy)phenyl)pyridin-2-yl)-4H-1,2,4-triazole-3-carboxamide] | 100 to 1000 nM
12 | Cc1ccc(OCCN2CCCCC2)cc1-c1ccnc(NC(=O)c2nnc(Cc3ccccc3F)[nH]2)c1 [Example 229, 5-(2-fluorobenzyl)-N-(4-(2-methyl-5-(2-(piperidin-1-yl)ethoxy)phenyl)pyridin-2-yl)-4H-1,2,4-triazole-3-carboxamide] | 100 to 1000 nM
13 | Cc1ccc(OCCN2CCCCC2)cc1-c1ccnc(NC(=O)c2nnc(Cc3ccc(F)cc3F)[nH]2)c1 [Example 230, 5-(2,4-difluorobenzyl)-N-(4-(2-methyl-5-(2-(piperidin-1-yl)ethoxy)phenyl)pyridin-2-yl)-4H-1,2,4-triazole-3-carboxamide] | 100 to 1000 nM
14 | Cc1ccc(OCCN2CCCCC2)cc1-c1ccnc(NC(=O)c2nnc(Cc3cc(F)ccc3F)[nH]2)c1 [Example 231, 5-(2,5-difluorobenzyl)-N-(4-(2-methyl-5-(2-(piperidin-1-yl)ethoxy)phenyl)pyridin-2-yl)-4H-1,2,4-triazole-3-carboxamide] | 100 to 1000 nM
15 | Cc1ccc(OCCN2CCCCC2)cc1-c1ccnc(NC(=O)c2nnc(Cc3cc(F)cc(F)c3)[nH]2)c1 [Example 232, 5-(3,5-difluorobenzyl)-N-(4-(2-methyl-5-(2-(piperidin-1-yl)ethoxy)phenyl)pyridin-2-yl)-4H-1,2,4-triazole-3-carboxamide] | 100 to 1000 nM
16 | Cc1ccc(OCCN2CCCCC2)cc1-c1ccnc(NC(=O)c2nnc(Cc3cccc(Cl)c3F)[nH]2)c1 [Example 233, 5-(2-fluoro-3-chlorobenzyl)-N-(4-(2-methyl-5-(2-(piperidin-1-yl)ethoxy)phenyl)pyridin-2-yl)-4H-1,2,4-triazole-3-carboxamide] | 1000 to 10000 nM
17 | Cc1ccc(OCC2CCN(C)CC2)cc1-c1ccnc(NC(=O)c2nnc(Cc3ccccc3F)[nH]2)c1 [Example 234, 5-(2-fluorobenzyl)-N-(4-(2-methyl-5-((1-methylpiperidin-4-yl)methoxy)phenyl)pyridin-2-yl)-4H-1,2,4-triazole-3-carboxamide] | ≤ 100 nM
18 | Cc1c(F)cc(OCCCC(C)(C)O)cc1-c1ccnc(NC(=O)c2nnc(Cc3ccccc3)[nH]2)c1 [Example 235, 5-benzyl-N-(4-(3-fluoro-5-((4-hydroxy-4-methylpentyl)oxy)-2-methylphenyl)pyridin-2-yl)-4H-1,2,4-triazole-3-carboxamide] | ≤ 100 nM
19 | Cc1c(F)cc(OCCCC(C)(C)O)cc1-c1ccnc(NC(=O)c2nnc(Cc3ccccc3F)[nH]2)c1 [Example 236, 5-(2-fluorobenzyl)-N-(4-(3-fluoro-5-((4-hydroxy-4-methylpentyl)oxy)-2-methylphenyl)pyridin-2-yl)-4H-1,2,4-triazole-3-carboxamide] | ≤ 100 nM
20 | Cc1cc(F)c(OCCCC(C)(C)O)cc1-c1ccnc(NC(=O)c2nnc(Cc3ccccc3)[nH]2)c1 [Example 237, 5-benzyl-N-(4-(4-fluoro-5-((4-hydroxy-4-methylpentyl)oxy)-2-methylphenyl)pyridin-2-yl)-4H-1,2,4-triazole-3-carboxamide] | ≤ 100 nM
21 | Cc1ccc(OCCCC(C)(C)O)cc1-c1cc(NC(=O)c2nnc(Cc3ccccc3F)[nH]2)ncc1Cl [Example 238, N-(5-chloro-4-(5-((4-hydroxy-4-methylpentyl)oxy)-2-methylphenyl)pyridin-2-yl)-5-(2-fluorobenzyl)-4H-1,2,4-triazole-3-carboxamide] | ≤ 100 nM
22 | Cc1ccc(OCCCC(C)(C)O)cc1-c1cc(NC(=O)c2nnc(CC3CCCCC3)[nH]2)ncc1Cl [Example 239, N-(5-chloro-4-(5-((4-hydroxy-4-methylpentyl)oxy)-2-methylphenyl)pyridin-2-yl)-5-(cyclohexylmethyl)-4H-1,2,4-triazole-3-carboxamide] | ≤ 100 nM
23 | Cc1ccc(OCCCC(C)(C)O)cc1-c1cc(NC(=O)c2nnc(Cc3ccccc3F)[nH]2)ncc1C [Example 240, 5-(2-fluorobenzyl)-N-(4-(5-((4-hydroxy-4-methylpentyl)oxy)-2-methylphenyl)-5-methylpyridin-2-yl)-4H-1,2,4-triazole-3-carboxamide] | 100 to 1000 nM
